Results published in the supplement of paper PMC10307832.

Compound: COc1cccc2cc(-c3nc([C@H]4CC[C@H](C(=O)O)CC4)n4ncnc(N)c34)[nH]c12 [OSI-027] + CC1(C)CCC(c2ccc(Cl)cc2)=C(CN2CCN(c3ccc(C(=O)NS(=O)(=O)c4ccc(N[C@H](CCN5CCOCC5)CSc5ccccc5)c(S(=O)(=O)C(F)(F)F)c4)cc3)CC2)C1 [Navitoclax] (partner 0.5 µM)
Assay: relative viability (nuclei count vs DMSO), 5 days (fraction); higher = more cells survive
Procedure, shortened: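 Relative viability divides the nuclei count in treated wells by that in vehicle wells. Lung cancer cell lines were seeded in 1536-well plates, dosed by pin tool the next day, and fixed and stained after 5 days in one step with final 0.05% Triton X-100, 1% formaldehyde and 1 ug/ml Hoechst. Dosing was a single drug or a fixed anchor-drug dose plus five library-drug doses (not always all listed) in √10 steps, and values are medians of duplicate plates imaged at 4×.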

## 201T
First compound 0.01 µM
  relative viability: 1.25
First compound 0.03162 µM
  relative viability: 1.24
First compound 0.1 µM
  relative viability: 1.2
First compound 0.3162 µM
  relative viability: 1.22
First compound 1 µM
  relative viability: 1.13

## A549
First compound 0.01 µM
  relative viability: 1.16
First compound 0.03162 µM
  relative viability: 1.24
First compound 0.1 µM
  relative viability: 1.01
First compound 0.3162 µM
  relative viability: 0.971
First compound 1 µM
  relative viability: 0.319

## A-427
First compound 0.01 µM
  relative viability: 0.974
First compound 0.03162 µM
  relative viability: 0.873
First compound 0.1 µM
  relative viability: 0.837
First compound 0.3162 µM
  relative viability: 0.603
First compound 1 µM
  relative viability: 0.696

## BEN
First compound 0.01 µM
  relative viability: 0.0799
First compound 0.03162 µM
  relative viability: 0.0753
First compound 0.1 µM
  relative viability: 0.0684
First compound 0.3162 µM
  relative viability: 0.0639
First compound 1 µM
  relative viability: 0.0589

## CAL-12T
First compound 0.01 µM
  relative viability: 1.36
First compound 0.03162 µM
  relative viability: 1.18
First compound 0.1 µM
  relative viability: 1.3
First compound 0.3162 µM
  relative viability: 1.08
First compound 1 µM
  relative viability: 0.5

## COR-L23
First compound 0.01 µM
  relative viability: 0.988
First compound 0.03162 µM
  relative viability: 0.782
First compound 0.1 µM
  relative viability: 0.938
First compound 0.3162 µM
  relative viability: 0.923
First compound 1 µM
  relative viability: 0.36

## COR-L 105
First compound 0.01 µM
  relative viability: 0.899
First compound 0.03162 µM
  relative viability: 0.782
First compound 0.1 µM
  relative viability: 0.886
First compound 0.3162 µM
  relative viability: 0.636
First compound 1 µM
  relative viability: 0.429

## Calu-6
First compound 0.01 µM
  relative viability: 0.78
First compound 0.03162 µM
  relative viability: 0.897
First compound 0.1 µM
  relative viability: 0.752
First compound 0.3162 µM
  relative viability: 0.782
First compound 1 µM
  relative viability: 0.493

## ChaGo-K-1
First compound 0.01 µM
  relative viability: 0.988
First compound 0.03162 µM
  relative viability: 1.4
First compound 0.1 µM
  relative viability: 0.533
First compound 0.3162 µM
  relative viability: 0.759
First compound 1 µM
  relative viability: 0.713

## EBC-1
First compound 0.01 µM
  relative viability: 0.382
First compound 0.03162 µM
  relative viability: 0.33
First compound 0.1 µM
  relative viability: 0.432
First compound 0.3162 µM
  relative viability: 0.239
First compound 1 µM
  relative viability: 0.203

## EKVX
First compound 0.01 µM
  relative viability: 0.954
First compound 0.03162 µM
  relative viability: 0.873
First compound 0.1 µM
  relative viability: 1.01
First compound 0.3162 µM
  relative viability: 0.807
First compound 1 µM
  relative viability: 0.44

## EMC-BAC-2
First compound 0.01 µM
  relative viability: 1.17
First compound 0.03162 µM
  relative viability: 1.05
First compound 0.1 µM
  relative viability: 1.12
First compound 0.3162 µM
  relative viability: 1.06
First compound 1 µM
  relative viability: 0.436

## EPLC-272H
First compound 0.01 µM
  relative viability: 1.07
First compound 0.03162 µM
  relative viability: 0.901
First compound 0.1 µM
  relative viability: 1.18
First compound 0.3162 µM
  relative viability: 0.897
First compound 1 µM
  relative viability: 1.04

## H3255
First compound 0.01 µM
  relative viability: 0.411
First compound 0.03162 µM
  relative viability: 0.483
First compound 0.1 µM
  relative viability: 0.442
First compound 0.3162 µM
  relative viability: 0.428
First compound 1 µM
  relative viability: 0.227

## HARA
First compound 0.01 µM
  relative viability: 1.18
First compound 0.03162 µM
  relative viability: 1.26
First compound 0.1 µM
  relative viability: 1.24
First compound 0.3162 µM
  relative viability: 1.34
First compound 1 µM
  relative viability: 0.354

## HCC-15
First compound 0.01 µM
  relative viability: 0.713
First compound 0.03162 µM
  relative viability: 0.689
First compound 0.1 µM
  relative viability: 0.676
First compound 0.3162 µM
  relative viability: 0.611
First compound 1 µM
  relative viability: 0.374

## HCC-44
First compound 0.01 µM
  relative viability: 0.966
First compound 0.03162 µM
  relative viability: 0.982
First compound 0.1 µM
  relative viability: 0.96
First compound 0.3162 µM
  relative viability: 0.833
First compound 1 µM
  relative viability: 0.383

## HCC-78
First compound 0.01 µM
  relative viability: 0.868
First compound 0.03162 µM
  relative viability: 0.766
First compound 0.1 µM
  relative viability: 0.371
First compound 0.3162 µM
  relative viability: 0.454
First compound 1 µM
  relative viability: 0.278

## HCC-366
First compound 0.01 µM
  relative viability: 1.05
First compound 0.03162 µM
  relative viability: 1.14
First compound 0.1 µM
  relative viability: 1.06
First compound 0.3162 µM
  relative viability: 1.05
First compound 1 µM
  relative viability: 0.287

## HCC-827
First compound 0.01 µM
  relative viability: 1.07
First compound 0.03162 µM
  relative viability: 1.06
First compound 0.1 µM
  relative viability: 0.995
First compound 0.3162 µM
  relative viability: 0.996
First compound 1 µM
  relative viability: 0.651

## HOP-62
First compound 0.01 µM
  relative viability: 1.11
First compound 0.03162 µM
  relative viability: 1.09
First compound 0.1 µM
  relative viability: 1.02
First compound 0.3162 µM
  relative viability: 1.13
First compound 1 µM
  relative viability: 0.646

## IA-LM
First compound 0.01 µM
  relative viability: 0.873
First compound 0.03162 µM
  relative viability: 0.572
First compound 0.1 µM
  relative viability: 0.481
First compound 0.3162 µM
  relative viability: 0.182
First compound 1 µM
  relative viability: 0.0688

## LC-2-ad
First compound 0.01 µM
  relative viability: 0.458
First compound 0.03162 µM
  relative viability: 0.4
First compound 0.1 µM
  relative viability: 0.372
First compound 0.3162 µM
  relative viability: 0.243
First compound 1 µM
  relative viability: 0.122

## LCLC-97TM1
First compound 0.01 µM
  relative viability: 0.36
First compound 0.03162 µM
  relative viability: 0.331
First compound 0.1 µM
  relative viability: 0.381
First compound 0.3162 µM
  relative viability: 0.214
First compound 1 µM
  relative viability: 0.159

## LK-2
First compound 0.01 µM
  relative viability: 0.774
First compound 0.03162 µM
  relative viability: 0.781
First compound 0.1 µM
  relative viability: 0.69
First compound 0.3162 µM
  relative viability: 0.372
First compound 1 µM
  relative viability: 0.238

## LOU-NH91
First compound 0.01 µM
  relative viability: 0.758
First compound 0.03162 µM
  relative viability: 0.712
First compound 0.1 µM
  relative viability: 0.69
First compound 0.3162 µM
  relative viability: 0.653
First compound 1 µM
  relative viability: 0.513

## LU99A
First compound 0.01 µM
  relative viability: 0.754
First compound 0.03162 µM
  relative viability: 0.651
First compound 0.1 µM
  relative viability: 0.695
First compound 0.3162 µM
  relative viability: 0.427
First compound 1 µM
  relative viability: 0.154

## LXF-289
First compound 0.01 µM
  relative viability: 1.03
First compound 0.03162 µM
  relative viability: 0.973
First compound 0.1 µM
  relative viability: 1.01
First compound 0.3162 µM
  relative viability: 0.921
First compound 1 µM
  relative viability: 0.582

## NCI-H23
First compound 0.01 µM
  relative viability: 0.666
First compound 0.03162 µM
  relative viability: 0.955
First compound 0.1 µM
  relative viability: 0.808
First compound 0.3162 µM
  relative viability: 0.604
First compound 1 µM
  relative viability: 0.319

## NCI-H322M
First compound 0.01 µM
  relative viability: 1.24
First compound 0.03162 µM
  relative viability: 1.15
First compound 0.1 µM
  relative viability: 1.17
First compound 0.3162 µM
  relative viability: 0.783
First compound 1 µM
  relative viability: 1.27

## NCI-H441
First compound 0.01 µM
  relative viability: 0.47
First compound 0.03162 µM
  relative viability: 0.57
First compound 0.1 µM
  relative viability: 0.425
First compound 0.3162 µM
  relative viability: 0.47
First compound 1 µM
  relative viability: 0.185

## NCI-H460
First compound 0.01 µM
  relative viability: 1.21
First compound 0.03162 µM
  relative viability: 1.06
First compound 0.1 µM
  relative viability: 1.3
First compound 0.3162 µM
  relative viability: 0.789
First compound 1 µM
  relative viability: 0.0638

## NCI-H520
First compound 0.01 µM
  relative viability: 1.31
First compound 0.03162 µM
  relative viability: 1.05
First compound 0.1 µM
  relative viability: 0.793
First compound 0.3162 µM
  relative viability: 0.637
First compound 1 µM
  relative viability: 0.303

## NCI-H596
First compound 0.01 µM
  relative viability: 0.888
First compound 0.03162 µM
  relative viability: 0.941
First compound 0.1 µM
  relative viability: 0.933
First compound 0.3162 µM
  relative viability: 0.85
First compound 1 µM
  relative viability: 0.459
